Assays:
[1] = target: T1, EP4 receptors (Homo sapiens, UniProt P35408); assay: Radioligand binding vs [3H]PGE2, EP4
T1 construct: expressed in transfected cells; host or cells: HEK-293
Protocol: HEK-293 cells stably expressing the human or feline FP receptor, or EP1, EP2, or EP4 receptors were washed with TME buffer, scraped from the bottom of the flasks, and homogenized for 30 sec using a Brinkman PT 10/35 polytron. TME buffer was added to achieve a final 40 ml volume in the centrifuge tubes (the composition of TME is 100 mM TRIS base, 20 mM MgCl2, […]; 10N HCl is added to achieve a pH of 7.4).
The cell homogenate was centrifuged at 19000 r.p.m. for 20 min at 4° C. using a Beckman Ti-60 rotor. The resultant pellet was resuspended in TME buffer to give a final 1 mg/ml protein concentration, as determined by Biorad assay. Radioligand binding competition assays vs. [^3H-]17 phenyl PGF2α, (5 nM) were performed in a 1001μvolume for 60 min. Binding reactions were started by adding plasma membrane fraction. The reaction was terminated by the addition of 4 ml ice-cold TRIS-HCl buffer and rapid filtration through glass fiber GF/B filters using a Brandel cell harvester. The filters were washed 3 times with ice-cold buffer and oven dried for one hour.
[^3H-] PGE2 (specific activity 180 Ci mmol) was used as the radioligand for EP receptors. [^3H] 17-phenyl PGF2α was employed for FP receptor binding studies. […] 17-phenyl PGF2α and non-specific binding determined with 10^−5M of unlabeled PGE2, or 17-phenyl PGF2α, according to receptor subtype studied.

[2] = target: T2, hEP3A/Gqi5 (Homo sapiens, UniProt P43115); assay: FLIPR calcium signal study, EP3A; format: cell-based; settings: read-out: Other Receptors hEP3A EC50
T2 construct: expressed in transfected cells; host or cells: HEK-293(EBNA)
T2 sequence (P43115 1-390): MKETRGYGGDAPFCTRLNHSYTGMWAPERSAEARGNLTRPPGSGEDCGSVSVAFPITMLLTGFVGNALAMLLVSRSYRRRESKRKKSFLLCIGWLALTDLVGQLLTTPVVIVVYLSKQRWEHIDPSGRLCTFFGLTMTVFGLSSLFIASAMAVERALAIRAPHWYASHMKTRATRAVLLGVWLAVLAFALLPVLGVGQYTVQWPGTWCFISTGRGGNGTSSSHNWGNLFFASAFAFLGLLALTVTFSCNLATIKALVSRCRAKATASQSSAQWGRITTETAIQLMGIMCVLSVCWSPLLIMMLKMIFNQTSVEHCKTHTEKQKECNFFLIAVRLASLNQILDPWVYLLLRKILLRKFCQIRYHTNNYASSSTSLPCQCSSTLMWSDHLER
Protocol: HEK-293(EBNA) cells, stably expressing one type or subtype of recombinant human prostaglandin receptors (prostaglandin receptors expressed: hDP/Gqs5; hEP1; hEP2/Gqs5; hEP3A/Gqi5; hEP4/Gqs5; hFP; hIP; hTP), were cultured in 100 mm culture dishes in high-glucose DMEM medium containing 10% fetal bovine serum, 2 mM 1-glutamine, 250 μg/ml geneticin (G418) and 200 μg/ml hygromycin B as selection markers, and 100 units/ml penicillin G, 100 μg/ml streptomycin and 0.25 μg/ml amphotericin B.
Cells were seeded at a density of 5×10^4 cells per well in Biocoat® Poly-D-lysine-coated black-wall, clear-bottom 96-well plates (Becton-Dickinson) and allowed to attach overnight in an incubator at 37° C. Cells were then washed two times with HBSS-HEPES buffer (Hanks Balanced Salt Solution without bicarbonate and phenol red, 20 mM HEPES, pH 7.4) using a Denley Cellwash plate washer (Labsystems). […]
Cells were excited with an Argon laser at 488 nm, and emission was measured through a 510-570 nm bandwidth emission filter (FLIPR™, Molecular Devices, Sunnyvale, Calif.). […] The peak increase in fluorescence intensity was recorded for each well. […] The peak fluorescence change in each drug-containing well was then expressed relative to the controls. […]

[3] = target: T3, EP2 (Homo sapiens, UniProt P43116); assay: EP2 cAMP assay; format: cell-based
[4] = target: T3, EP2; assay: Competition binding vs [3H]PGE2, EP2; design: expressed in transfected cells; host or cells: HEK 293; settings: HEK 293 cells stably expressing human EP2
Protocol: Competition binding experiments were performed in a medium containing Hank's balanced salt solution, Hepes 20 mM, pH 7.3, membranes (˜60 μg protein) or 2×10^5 cells from HEK 293 cells stably expressing human EP2 receptors, [^3H]PGE2 (10 nM) and various concentrations of test compounds in a total volume of 300 μl. Reaction mixtures were incubated at 23° C. for 60 min, and were filtered over Whatman GF/B filters under vacuum. Filters were washed three times with 5 ml ice-cold buffer containing 50 mM Tris/HCl (pH 7.3). Non-specific binding was estimated in the presence of excess unlabeled PGE2 (10 μM). Binding data fitted to the binding model for a single class of binding sites, using nonlinear regression analysis. IC50 values thus obtained were converted to Ki using the equation of Ki=(IC50/(1+[L]/KD) where [L] represents PGE2 concentration (10 nM) and KD the dissociation constant for [^3H]PGE2 at human EP2 receptors (40 nM). […]
The cell homogenate was centrifuged at 19000 r.p.m. for 20 min at 4° C. using a Beckman Ti-60 rotor. The resultant pellet was resuspended in TME buffer to give a final 1 mg/ml protein concentration, as determined by Biorad assay. […]
[^3H-] […] 17-phenyl PGF2α and non-specific binding determined with 10^−5M of unlabeled PGE2, or 17-phenyl PGF2α, according to receptor subtype studied.

T3 sequence (P43116 whole entry): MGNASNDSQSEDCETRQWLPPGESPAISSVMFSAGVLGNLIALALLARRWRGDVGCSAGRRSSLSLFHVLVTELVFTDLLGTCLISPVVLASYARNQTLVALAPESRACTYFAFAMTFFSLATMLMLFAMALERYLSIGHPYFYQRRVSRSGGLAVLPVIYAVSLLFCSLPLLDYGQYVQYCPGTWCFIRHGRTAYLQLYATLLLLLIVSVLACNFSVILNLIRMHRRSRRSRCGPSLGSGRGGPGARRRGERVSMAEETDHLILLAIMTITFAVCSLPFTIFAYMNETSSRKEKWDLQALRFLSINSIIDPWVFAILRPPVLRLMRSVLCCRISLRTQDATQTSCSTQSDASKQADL
T1 sequence (P35408 whole entry): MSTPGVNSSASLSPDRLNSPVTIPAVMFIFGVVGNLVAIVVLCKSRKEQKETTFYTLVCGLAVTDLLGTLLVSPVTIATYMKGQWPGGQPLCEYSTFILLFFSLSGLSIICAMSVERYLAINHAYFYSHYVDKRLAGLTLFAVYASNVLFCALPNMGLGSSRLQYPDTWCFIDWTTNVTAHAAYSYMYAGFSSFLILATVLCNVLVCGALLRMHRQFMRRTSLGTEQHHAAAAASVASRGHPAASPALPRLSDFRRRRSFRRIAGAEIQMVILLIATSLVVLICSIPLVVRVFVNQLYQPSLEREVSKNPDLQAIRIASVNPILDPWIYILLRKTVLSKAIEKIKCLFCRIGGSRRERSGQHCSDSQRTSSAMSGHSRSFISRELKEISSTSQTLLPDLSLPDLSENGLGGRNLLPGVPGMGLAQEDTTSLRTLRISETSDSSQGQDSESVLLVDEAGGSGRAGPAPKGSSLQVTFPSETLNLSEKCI

Ki [1] [nM] | EC50 [2] [nM] | EC50 [3] [nM] | Ki [4] [nM] | SMILES
3840 |  |  |  | CCCCCCC(O)c1ccc(N2C(=O)CC[C@@H]2COCc2ccc(C(=O)O)s2)cc1 (single isomer, unassigned) [Example 34]
 | 403 | 3 |  | CCCCCC(O)c1ccc(N2C(=O)CC[C@@H]2COCc2ccc(C(=O)O)s2)cc1 (stereo partly drawn) [Example 9, 5-{(R)-1-[4-(1-Hydroxy-hexyl)-phenyl]-5-oxo-pyrrolidin-2-ylmethoxymethyl}-thiophene-2-carboxylic acid]
 | 519 |  |  | CCCCCCC(O)c1ccc(N2C(=O)CC[C@@H]2COCc2ccc(C(=O)O)s2)cc1 (stereo partly drawn) [Example 13, 5-{(R)-1-[4-(1-Hydroxy-heptyl)-phenyl]-5-oxo-pyrrolidin-2-ylmethoxymethyl}-thiophene-2-carboxylic acid]
 |  | 0.9 | 10 | CCCCCCC(O)c1ccc(N2C(=O)CC[C@@H]2CCCc2ccc(C(=O)O)s2)cc1 (stereo partly drawn) [Example 36, 5-(3-{(S)-1-[4-(1-Hydroxy-heptyl)-phenyl]-5-oxo-pyrrolidin-2-yl}-propyl)-thiophene-2-carboxylic acid]
